Source: patent US5843481A, “Treatment of proliferative disorders, metastasaes, and drug resistant tumors with vanadate compounds and derivatives or analogues thereof” (priority 1994, dated 1998)

What was measured:
[1] = tested on: non-proliferating chondrocytes; experiment: Viability of non-proliferating chondrocytes (high cell density); type: cell-based, bovine; conditions: 0-50 μM, 48 hours; FIG. 6
Procedure: (§1) As described in example 1, orthovanadate inhibited fos, jun and collagenase expression. If fos and jun expression are required for cellular proliferation, then orthovanadate should inhibit chondrocyte proliferation. In order to compare the effect of orthovanadate on non-proliferating and proliferating chondrocytes, chondrocytes were plated at both high cell density (2×10^6 to 4×10^6 cells/per well on a six well plate) (nonproliferating) and at a lower cell density (5×10^5 to 1×10^6 cells/per well on a six well plate) (proliferating) and then maintained for 48 hours. The cells were then incubated in media (HAMS F12) containing 0-50 μM Orthovanadate for an additional 48 hours. The cells were harvested and the number of viable cells determined.

[2] = Tolerability/toxicity of orthovanadate in mice, Example 9; type: in vivo
Source text: However, subcutaneous injections of up to 500 μgms orthovanadate is tolerated by the animals. Slow administration of the orthovanadate would decrease toxicity and the animals may tolerate higher doses.

PGE2 = PGE2 production by chondrocytes (RIA); type: cell-based, bovine; conditions: orthovanadate 100 uM
Procedure: (§2) Bovine articular chondrocytes were isolated and plated as previously described (Kandel R. A. et al. Biochim. Biophys. Acta. 1053, 130-134, 1990). In order to determine the effect of orthovanadate on IL 1 and PMA (phorbol ester) induced responses, chondrocytes were incubated with orthovanadate (100 μM) for 2 hours before stimulation with IL 1 (10 ng/ml) or PMA ([…]). collagenase production was determined by incubating chondrocytes for 24 hours with IL 1 or PMA and the cell conditioned medium was assayed for collagenase activity using an ELISA procedure as described previously (Kandel et al. supra) PLA2 activity was measured by incorporating ^3 H-arachidonic acid (^3 H-AA) into the cells and then incubating the cells with medium containing 1 mg/ml BSA, either alone or in the presence of IL 1 or PMA, for 10 min. as previously described (Conquer, J. A. […], Biochim. Biophys. Acta. 1134, 1-6). The amount of ^3 H-AA liberated into the supernatant was determined. To measure PGE2 production, chondrocytes were incubated for 6 hours in Ham's F12 medium, either alone or with IL 1 or PMA. The supernatant was analyzed by RIA using an antibody specific for PGE2 (Dr. S. A. Jones, Mount Sinai Hospital, Toronto, Can.). In order to examine the expression of c-fos and c-jun, chondrocytes were incubated for 1 hour in the presence of IL-1, PMA or AA (3 μM). […]

fos = experiment: Northern blot analysis of fos mRNA expression in chondrocytes; type: cell-based, bovine
Procedure: The cytokine interleukin 1 (IL 1) has been used to identify the intermediate second messengers which regulate the expression of fos and jun.
In order to elucidate this possibility, the effect of DPI on fos and jun mRNA levels induced by IL 1 was investigated. RNA from chondrocytes treated with IL 1 in the presence and absence of DPI were analyzed by Northern blot analysis using either fos or collagenase cDNA probes.
Since superoxides are rapidly converted to hydrogen peroxide in the cell by superoxide dismutase, whether hydrogen peroxide could mimic the effect of IL 1 in the induction of fos expression was investigated. RNA was extracted from chondrocytes (Kandel et al. supra) treated with H2 O2 for 30, 60 and 90 minutes and examined by Northern blot analysis using a fos cDNA probe.
Bovine articular chondrocytes were isolated and plated as previously described (Kandel R. A. et al. Biochim. Biophys. Acta. 1053, 130-134, 1990). In order to determine the effect of orthovanadate on IL 1 and PMA (phorbol ester) induced responses, chondrocytes were incubated with orthovanadate (100 μM) for 2 hours before stimulation with IL 1 (10 ng/ml) or PMA ([…]). collagenase production was determined by incubating chondrocytes for 24 hours with IL 1 or PMA and the cell conditioned medium was assayed for collagenase activity using an ELISA procedure as described previously (Kandel et al. supra) PLA2 activity was measured by incorporating ^3 H-arachidonic acid (^3 H-AA) into the cells and then incubating the cells with medium containing 1 mg/ml BSA, either alone or in the presence of IL 1 or PMA, for 10 min. as previously described (Conquer, J. A. […], Biochim. Biophys. Acta. 1134, 1-6). The amount of ^3 H-AA liberated into the supernatant was determined. To measure PGE2 production, chondrocytes were incubated for 6 hours in Ham's F12 medium, either alone or with IL 1 or PMA. The supernatant was analyzed by RIA using an antibody specific for PGE2 (Dr. S. A. Jones, Mount Sinai Hospital, Toronto, Can.). In order to examine the expression of c-fos and c-jun, chondrocytes were incubated for 1 hour in the presence of IL-1, PMA or AA (3 μM). Chondrocytes were washed in PBS and the total RNA extracted as previously described (Cruz. et al, 1991, Biochem. J. 277, 327-330). RNA samples were run on formaldehyde agarose gels and transferred to nylon membrane for northern analysis using cDNA probes for c-fos and c-jun.
Cells were also incubated as described above with 20 mM N-acetylcyateine for 20 min. and then incubated with IL 1 for an additional 1 or 12 hours. The RNA was extracted and examined by Northern blot analysis using cDNA probes for c-fos and collagenase.

[3] = tested on: proliferating chondrocytes; experiment: Viability of proliferating chondrocytes (low cell density); type: cell-based, bovine; conditions: 0-50 μM, 48 hours; FIG. 6
Procedure: as §1

MDAY-D2 = MDAY-D2 tumor growth in mice, three vanadyl compounds, Example 6B; type: in vivo
Source text: In order to examine the ability of vanadyl compounds to reduce tumor formation, growth and metastases, a specific animal model which allows investigation of all of these processes in the same animal was chosen. This model involves the injection of a metastatic haematopoietic cell line, MDAY-D2, into mice subcutaneously. These cells form a tumor at the site of injection and its size can be easily determined. In addition, these cells metastasize to the liver and metastases can be detected histologically after day 17 to 19. This model provides a very sensitive and reproducible approach to investigate the effect of vanadyl compounds on tumor growth and metastases.
In a separate experiment using the same animal model, the effect of orthovanadate, vanadyl sulphate and vanadyl hydroperoxide administration on tumor growth in vivo was examined. On Day 1, 20 mice were injected with 2×10^5 MDAY-D2 cell subcutaneously. The mice were divided into four groups of five mice. At day 5, the animals were injected subcutaneously with 50 μl of water alone or containing 10 mg/ml of orthovanadate, 10 mg/ml of vanadyl sulphate, or 10 mg/ml of vanadyl hydroperoxide. This treatment was continued daily for 16 days. At day 21, the mice were sacrificed and the tumors dissected and weighed.

collagenase = experiment: Collagenase production by chondrocytes (ELISA of conditioned medium); type: cell-based, bovine; conditions: orthovanadate 100 uM, 2 hours before stimulation
Procedure: as §2

MDAY-D2 and HTB14 cells = experiment: Viability of proliferating tumor cell lines; type: cell-based, mouse (MDAY-D2); human (HTB14)
Procedure: Fos and jun activity are also required for cellular proliferation in many tumor cell lines. Accordingly, the effect of orthovanadate on adherent cells and cell suspensions were examined. MDAY-D2 (a mouse lymphoid cell line grown in suspension) and HTB14 cells (an adherent human primary astrocytoma cell line) were incubated in media containing 0-50 μM orthovanadate for 48 hours. The cells were harvested and the number of viable cells determined.

[4] = tested on: KB8, KB8-5 and KB85-11 cells; experiment: Viability of drug resistant ovarian cancer cell lines; type: cell-based
Source text: The effect of orthovanadate on three ovarian cancer cell lines, KB8, KB8-5 and KB85-11, which have increasing drug resistance, respectively, relative to the parent cell line, KB3-1 was compared. These drug resistant cell lines are not killed by several classes of chemotherapeutic agents such as colchicine, vinblastine and doxorubicin. […] The cells were harvested and the number of viable cells determined.

[5] = Dose required to reach serum concentration highly toxic to cancer cells; parameters: species or system animals; conditions: in vivo
PLA2 = experiment: 3H-arachidonic acid release by chondrocytes (PLA2 activity); type: cell-based, bovine; conditions: orthovanadate 100 uM
Procedure: as §2

## [O]=[V]([O-])([O-])[O-] [orthovanadate]
[1]
  toxicity to chondrocytes plated at high cell density (non-proliferating): did not effect
[2]; intraperitoneal, high doses
  intraperitoneal toxicity: toxic
[2]; oral, 0.5 mg/ml, laboratory mice
  oral toxicity: gastric toxicity
[2]; subcutaneous injections
  tolerated dose, subcutaneous: up to 500 μgms
PGE2
  production of PGE2 (IL 1 or PMA): did not inhibit
fos; orthovanadate 100 μM, FIGS. 4 and 18
  IL 1, PMA and AA induced c-fos expression: completely inhibited
fos; summary statement
  fos expression in response to factors such as IL 1 or arachidonic acid: completely inhibit
[3]
  toxicity to cells plated at low cell density (proliferating): toxic
MDAY-D2; 10 mg/ml s.c. daily
  effect on tumor growth, in words: most efficacy in reducing tumor growth
MDAY-D2; 10 mg/ml s.c., day 21
  mice without detectable tumors: one mouse did not have detectable tumors
MDAY-D2; 10 mg/ml, 50 μl s.c. daily for 16 days, groups of five mice
  animals that died: One animal died
collagenase
  collagenase production (IL 1 or PMA): completely inhibited
MDAY-D2 and HTB14 cells
  time by which cell death was observed: ≤ 24 h
MDAY-D2 and HTB14 cells; 0-50 μM, 48 hours, FIG. 7
  cell death, concentration dependence: concentration dependent increase in cell death
MDAY-D2 and HTB14 cells; within 3 days of continuous treatment
  cell death completeness: over 98%
[4]; 0-50 μM, 48 hours, FIG. 10
  effectiveness in killing drug resistant cell lines: equally effective
[4]; three days
  cell death by three days of administration: most of the cells had died
[5]
  dose required to reach serum concentrations highly toxic to cancer cells: at least 0.2 mg/kg
PLA2
  IL 1 or PMA induced release of 3H-AA: did not inhibit
